# Results reported in PMC3702540, “Sphingosine Kinase Activity Is Not Required for Tumor Cell Viability” (PLoS ONE, 2013).
# What was measured:
# panel of cell lines = assay: 72 h viability assays, summary for panel of cell lines; type: cell-based; details: regular culture conditions and serum starvation
# Procedure: (§1) Cell lines were obtained from ATCC and cultured in Dulbecco’s Modification of Eagle’s Medium (Corning® cellgro 10-013) supplemented with 5% FBS and 1% P/S or in Minimum Essential Medium (Corning® cellgro® 10-010) supplemented with 10% FBS, 0.1 mM MEM Nonessential Amino Acids (Corning® cellgro 25-025), 1.0 mM sodium pyruvate (Corning® cellgro 25-000) and 1% P/S. Cells were seeded at a density of 5000 cells per well in 96-well cell culture plates on day1. Media was changed with or without serum and dosed with compound on Day 2. On day5 the Cell Viability assay was performed with CellTiter-Glo® Reagent (Promega) according to the manufacturers instruction.
# (§2) S1P has been reported to be important for tumor cell viability, and reduction of intracellular S1P levels has been associated with greater cellular sensitivity to pro-apoptotic stress, [7]. […] A panel of cell lines likely to be sensitive to SPHK inhibition was assembled based on literature reports, internal siRNA data and SPHK expression levels, [9], [21]. Viability was monitored after 72 h of SPHK inhibition under regular culture conditions to assess direct effects on cell viability, and under serum starvation to assess the effects of SPHK inhibition under stress conditions.
# [1] = tested on: human breast cancer cell line MDA-MB-231; assay: Cellular SPHK activity, C17 S1P levels; details: MDA-MB-231, 2 h, read-out: IC50, inhibition of cellular SPHK activity (C17 S1P)
# Procedure: (§9) Frozen cell pellets (1×10^6 cells) were thawed and 75 µl of methanol was added. The samples were transferred to an un-skirted 96 well PCR plate after which they were mixed to a homogeneous solution. The plate was then sealed and pulsed for 6 seconds per well (E200-S0%250 mV500 setting) on a Covaris Adaptive Focused Acoustic (AFA) cell disruptor (Covaris, Woburn, MA). 130 µl of Dichloromethane was then added to each well after which plates were incubated at room temperature for 2 hours. Post incubation, 52 µl of ddH2O was added to induce phase separation. […] 45 µl of this final sample was transferred to a 384 well plate and analyzed on a RapidfireTM (Biocius, Wakefield, MA) ultra-high throughput chromatography system interfaced with a TSQ Vantage triple stage quadrupole mass spectrometer (Thermo Scientific, Waltham, MA). […] After an aqueous wash ((80∶20) Methanol/ddH2O containing 75 mM NH4OH and 0.1% formic acid) to remove the S1P extraction components that interfere with mass spectrometry, C17-S1P was eluted ((99∶1) Methanol/ddH2O containing 0.1% formic acid) and analyzed by inline triple stage quadrupole mass spectrometry. […] C17-S1P was monitored using a selective reaction monitoring protocol which detected the loss of a phosphate molecule from the parent ion C17-S1P. […]
# (§10) Two hours after addition of C17 sphingosine, cells were lysed and levels of C17 S1P were determined.
# LOX = assay: 72 h viability assay (CellTiter-Glo); type: cell-based, human; details: LOX (Skin), inflection point of titration curve
# Procedure: as §1, §2
# (§3) The IC50s reflect the inflection point of the titration curve.
# LN229 cells = assay: 15 day colony formation assay; type: cell-based, human; details: concentrations up to 1 µM
# Procedure: LN-229 cells were cultured in Dulbecco’s Modification of Eagle’s Medium (Corning® cellgro 10-013) supplement with 5%FBS and 1% P/S. On Day 1 cells were seeded on 6-well tissue culture plates at density of 800 cells per well. On Day 2 compounds were added and cells were incubated for 15 days at 37°C. Cells were then stained with Crystal violet.
# The long term effect of SPHK inhibition on cell viability was studied in the glioblastoma cell line LN229. […] Concentrations of more than 3 µM led to immediate cell death due to cell lysis and prevented the formation of colonies (figure 5).
# Figure 5 Effects of SPHK inhibition in colony formation assays. LN229 cells were seeded at a density of 800 cells/well in a six well plate in the presence of the indicated concentrations of SPHK inhibitor. After 15 days, cells were fixed and stained with crystal violet.
# [2] = Compound plasma concentration in mice after oral gavage; type: in vivo
# Procedure: (§4) For S1P measurements, plasma was extracted with 0.1% formic acid/methanol containing an internal standard (C17-S1P) and subjected to LC-MS/MS analysis. […] The method provided linear response over a concentration range of 1 to 2000 ng/ml. A separate aliquot of plasma was extracted with acetonitrile containing an internal standard (structural analog) and subjected to reversed-phase liquid chromatographic using a Shiseido UG Capcell C18, 50×2 mm analytical column (Phenomenex). MS/MS analysis was conducted on a API4000 with an electrospray interface using multiple reaction monitoring (MRM) in the positive ionization mode.
# (§5) Female athymic nude mice were assigned to one of fifteen treatment groups. […] At various times after dosing (2 to 24 h), mice were sacrificed and plasma collected to determine S1P levels and compound concentrations. Data are mean ± SE (n = 5). […] S1P and drug concentration were determined by LC-MS/MS.
# (§6) The inhibition of sphingosine kinase was evaluated in a pharmacodynamic assay. […] At 2, 7 and 24 hours post dose, plasma was collected and levels of S1P and plasma drug concentration were determined.
# mSPHK1 = mSPHK1 (Mus musculus, UniProt Q8CI15); assay: Biochemical SPHK activity, 33P incorporation into S1P; parameters: species or system murine; details: biochemical assay
# Procedure: (§7) A biochemical assay was used to measure the incorporation of ^33P-radiolabeled phosphate from ATP into S1P. Reactions were performed in 96-well polystyrene high-binding microplates (Greiner) in a volume of 60 µl. Reaction mixtures contained 50 mM HEPES (pH 7.5), 3 mM MgCl2, 10 mM NaF, 1 µM ATP, 0.75 µCi of [γ-33P]ATP, 1.11 µM sphingosine (Biomol International) in the presence of either 0.005% Triton X-100 (SPHK1) or 0.0025% NP-40 (SPHK2). Enzymatic reactions were initiated by adding 30 nM of sphingosine kinase in the presence of 2 mM dithiothreitol (DTT). Reactions were terminated after 50 min at 30°C by adding 30 µL 7.5 M Guanidine HCl. Plates were then washed three times with 200 µl PBS before 50 ul of scintillate was added to each well. The assay was quantified by counting in a Packard TopCount (Perkin Elmer).
# [3] = tested on: human melanoma cell line WM266.4; assay: Cellular SPHK activity, C17 S1P levels; details: WM 266-4, 2 h, read-out: IC50, inhibition of cellular SPHK activity (C17 S1P)
# Procedure: as §9, §10
# human cell lines = assay: Cellular SPHK activity, C17 S1P levels, summary for human cell lines; type: cell-based
# [4] = tested on: murine melanoma cell line B16F10; assay: Cellular SPHK activity, C17 S1P levels; details: Mus musculus, B16-F10, 2 h, read-out: IC50, inhibition of cellular SPHK activity (C17 S1P)
# Procedure: as §9, §10
# HS294T = assay: 72 h viability assay (CellTiter-Glo); type: cell-based; details: Homo sapiens, Hs 294T, HS294T (Skin), inflection point of titration curve
# Procedure: as §1
# (§8) S1P has been reported to be important for tumor cell viability, and reduction of intracellular S1P levels has been associated with greater cellular sensitivity to pro-apoptotic stress, [7]. Compounds A and B were used to test this hypothesis experimentally. A panel of cell lines likely to be sensitive to SPHK inhibition was assembled based on literature reports, internal siRNA data and SPHK expression levels, [9], [21]. Viability was monitored after 72 h of SPHK inhibition under regular culture conditions to assess direct effects on cell viability, and under serum starvation to assess the effects of SPHK inhibition under stress conditions. […] Cell death was only observed at higher concentrations (3 to 30 µM). […] Like all substrate competitive SPHK inhibitors, these compounds have a polar headgroup and a lipophilic tail, and can act as detergents at higher concentrations. […]
# LN229 = assay: 72 h viability assay (CellTiter-Glo); type: cell-based; details: Homo sapiens, LN-229, LN229 (Brain), inflection point of titration curve
# Procedure: as §1, §8
# WM266-4 = assay: 72 h viability assay (CellTiter-Glo); type: cell-based; details: Homo sapiens, WM 266-4, WM266-4 (Skin), inflection point of titration curve
# Procedure: as §1, §8
# Saos2 = assay: 72 h viability assay (CellTiter-Glo); type: cell-based; details: Homo sapiens, SAOS-2, Saos2 (Bone), inflection point of titration curve
# Procedure: as §1, §8
# UACC257 = assay: 72 h viability assay (CellTiter-Glo); type: cell-based; details: Homo sapiens, UACC-257, UACC257 (Skin), inflection point of titration curve
# Procedure: as §1, §8
# LN18 = assay: 72 h viability assay (CellTiter-Glo); type: cell-based; details: Homo sapiens, LN-18, LN18 (Brain), inflection point of titration curve
# Procedure: as §1, §8
# HeLa = assay: 72 h viability assay (CellTiter-Glo); type: cell-based; details: Homo sapiens, HeLa (Cervix), inflection point of titration curve
# Procedure: as §1, §8
# A375 = assay: 72 h viability assay (CellTiter-Glo); type: cell-based; details: Homo sapiens, A-375, A375 (Skin), inflection point of titration curve
# Procedure: as §1, §8
# Colo 320 = assay: 72 h viability assay (CellTiter-Glo); type: cell-based; details: Homo sapiens, Colo 320 (Colon), inflection point of titration curve
# Procedure: as §1, §8
# HA-1 = assay: 72 h viability assay (CellTiter-Glo); type: cell-based; details: read-out: IC50 viability
# Procedure: as §1, §8
# [5] = tested on: MDA-MB-231 xenograft tumors; assay: MDA-MB-231 tumor xenograft model; type: in vivo; details: athymic nude mice
# Procedure: MDA-MB-231 cells were purchased from the American Type Culture Collection (ATCC) and maintained in DMEM high glucose with 10% fetal bovine serum (FBS) and 1x-L-glutamine. Mice were injected subcutaneously with 5×10^6 cells in 30% Matrigel (BD Biosciences, San Jose, CA). […] Vehicle and compound A were administered by oral gavage daily. Taxotere was administered by intraperitoneal injection once a week. Tumor dimensions were assessed twice weekly with a Pro-Max electronic digital caliper (Sylvac, Crissier, Switzerland) and tumor volume was calculated using the formula: length x width x height and expressed as mm^3. Data are expressed as mean +/− SE (n = 7–10). Repeated-measures analysis of variance (RMANOVA) followed by Dunnett’s post hoc test for multiple comparisons was used to evaluate statistical significance of observed differences. Body weight was recorded twice weekly as an index of toxicity.
# Here, athymic nude mice were implanted s.c. with human MDA-MD-231 breast cancer cells. Dosing was initiated 18 days later when the tumors had reached ∼ 200 mm^3.
# Female athymic nude mice were injected with 5×10^6 MDA-MB-231 cells on day 0. […] (n = 7–10 per group); bars, SE. *, P<0.0001, compared to vehicle.
# plasma levels of S1P = assay: Pharmacodynamic assay, plasma S1P levels in mice; type: in vivo
# Procedure: as §4, §5, §6
# hSPHK1 = hSPHK1 (Homo sapiens, UniProt Q9NYA1); assay: Biochemical SPHK activity, 33P incorporation into S1P; details: biochemical assay
# Procedure: as §7
# hSPHK2 = hSPHK2 (Homo sapiens, UniProt Q9NRA0); assay: as above; details: biochemical assay
# Procedure: as §7
# mSPHK2 = mSPHK2 (Mus musculus, UniProt Q9JIA7); assay: as above; parameters: species or system murine; details: biochemical assay
# Procedure: as §7
# [6] = tested on: human melanoma cell line LOX; assay: Endogenous S1P levels 24 h after compound treatment; type: cell-based; details: 24 h treatment, read-out: IC50, endogenous S1P production (LOX)
# Excerpt: Several SPHK inhibitors have been reported in the literature, and have been utilized to support the rheostat theory.
# as §3
# SPHK1 = tested on: SPHK1; parameters: method as in PMID 22397330; details: cited from earlier work
# Sequence of mSPHK1 (Q8CI15 whole entry): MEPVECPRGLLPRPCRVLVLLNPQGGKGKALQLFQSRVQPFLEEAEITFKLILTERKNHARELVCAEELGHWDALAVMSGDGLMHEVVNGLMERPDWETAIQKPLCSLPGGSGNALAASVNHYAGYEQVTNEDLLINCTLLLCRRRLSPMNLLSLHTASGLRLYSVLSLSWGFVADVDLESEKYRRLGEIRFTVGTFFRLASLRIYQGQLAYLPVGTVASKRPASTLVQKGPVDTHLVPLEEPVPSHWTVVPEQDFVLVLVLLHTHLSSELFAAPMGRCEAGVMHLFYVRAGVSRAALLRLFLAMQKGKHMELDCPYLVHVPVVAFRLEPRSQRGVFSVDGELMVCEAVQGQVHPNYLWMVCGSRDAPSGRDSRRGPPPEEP
# Sequence of mSPHK2 (Q9JIA7 whole entry): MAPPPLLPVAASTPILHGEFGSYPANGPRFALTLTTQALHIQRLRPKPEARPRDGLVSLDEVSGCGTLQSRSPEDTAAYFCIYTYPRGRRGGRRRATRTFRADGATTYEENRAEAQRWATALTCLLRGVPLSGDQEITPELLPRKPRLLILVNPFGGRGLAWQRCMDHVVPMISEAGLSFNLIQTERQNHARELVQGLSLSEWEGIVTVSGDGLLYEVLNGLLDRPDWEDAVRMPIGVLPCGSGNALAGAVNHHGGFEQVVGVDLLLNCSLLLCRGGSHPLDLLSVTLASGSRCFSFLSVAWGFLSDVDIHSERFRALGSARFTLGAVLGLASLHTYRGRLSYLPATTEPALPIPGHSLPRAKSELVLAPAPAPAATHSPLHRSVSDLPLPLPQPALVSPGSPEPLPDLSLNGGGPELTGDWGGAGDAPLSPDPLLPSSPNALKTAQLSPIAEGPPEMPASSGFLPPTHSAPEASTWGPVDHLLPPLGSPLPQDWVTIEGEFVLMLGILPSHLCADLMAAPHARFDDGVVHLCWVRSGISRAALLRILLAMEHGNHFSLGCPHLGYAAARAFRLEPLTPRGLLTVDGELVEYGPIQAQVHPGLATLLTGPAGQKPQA
# Sequence of hSPHK2 (Q9NRA0 whole entry): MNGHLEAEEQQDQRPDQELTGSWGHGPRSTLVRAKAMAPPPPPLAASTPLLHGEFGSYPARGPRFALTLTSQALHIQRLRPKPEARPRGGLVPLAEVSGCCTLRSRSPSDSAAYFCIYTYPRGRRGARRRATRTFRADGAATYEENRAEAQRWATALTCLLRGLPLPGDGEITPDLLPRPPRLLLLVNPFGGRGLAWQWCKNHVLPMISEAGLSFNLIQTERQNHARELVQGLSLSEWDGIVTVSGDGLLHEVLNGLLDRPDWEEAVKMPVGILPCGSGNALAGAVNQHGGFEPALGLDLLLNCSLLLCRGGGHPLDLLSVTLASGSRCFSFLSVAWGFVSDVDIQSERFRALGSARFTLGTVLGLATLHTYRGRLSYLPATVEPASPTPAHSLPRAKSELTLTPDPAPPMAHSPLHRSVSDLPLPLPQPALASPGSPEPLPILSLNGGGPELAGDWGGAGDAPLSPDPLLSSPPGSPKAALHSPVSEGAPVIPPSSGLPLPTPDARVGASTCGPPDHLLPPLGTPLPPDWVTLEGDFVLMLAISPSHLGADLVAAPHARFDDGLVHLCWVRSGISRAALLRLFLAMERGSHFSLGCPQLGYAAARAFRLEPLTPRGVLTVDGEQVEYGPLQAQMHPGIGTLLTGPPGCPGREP
# Sequence of hSPHK1 (Q9NYA1 whole entry): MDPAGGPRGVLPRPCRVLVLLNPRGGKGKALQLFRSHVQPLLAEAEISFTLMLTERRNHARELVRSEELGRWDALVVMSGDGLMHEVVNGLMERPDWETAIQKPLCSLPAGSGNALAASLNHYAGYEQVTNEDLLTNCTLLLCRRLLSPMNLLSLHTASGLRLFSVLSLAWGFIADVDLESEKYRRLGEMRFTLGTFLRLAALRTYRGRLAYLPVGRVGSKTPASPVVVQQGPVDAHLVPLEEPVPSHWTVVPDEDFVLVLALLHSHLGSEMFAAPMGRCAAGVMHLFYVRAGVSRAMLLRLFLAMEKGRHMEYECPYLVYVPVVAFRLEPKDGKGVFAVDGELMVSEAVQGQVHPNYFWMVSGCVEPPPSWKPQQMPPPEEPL
Structure (SMILES),effect on viability at 1 µM compound (panel of cell lines),IC50 (LOX; Homo sapiens),viability in 72 h proliferation and 15 day colony formation assays (LN229 cells),IC50 (mSPHK1),IC50 [3],"IC50s, inhibition of SPHK activity in human cell lines (human cell lines)",IC50 (HS294T),IC50 (LN229),IC50 (WM266-4),IC50 (Saos2),IC50 (UACC257),IC50 (LN18),IC50 (HeLa),IC50 (A375),IC50 (Colo 320),IC50 (HA-1),IC50 (hSPHK2),IC50 (mSPHK2),also measured
OC[C@H]1C[C@@H](O)CCN1CCc1ccc(Nc2nc(-c3ccc(C(F)(F)F)cc3)cs2)cc1 [Compound A],did not result in reduced viability,4 µM,viability was unchanged,0.064 µM,0.063 µM,double digit nanomolar range,6 µM,4.8 µM,6 µM,7 µM,4.4 µM,4.1 µM,6.4 µM,8.3 µM,5.1 µM,6.3 µM,,,"IC50 [1]: 0.09 µM; oral bioavailability [2]: orally bioavailable; plasma exposure at maximum inhibition of plasma S1P [2]: 0.38 µM; IC50 [4]: 0.25 µM; effect on tumor growth in vivo ([5]; 300 mg/kg daily by oral gavage from day 18): did not lead to significant inhibition of tumor growth; mice in which compound was not tolerated (deaths) ([5]; 300 mg/kg daily by oral gavage, cause of death unknown): 3 out of the 10; reduction of host / plasma S1P levels (plasma levels of S1P; 300 mg/kg oral): more than 70%; maximum inhibition of plasma levels of S1P (plasma levels of S1P; oral gavage 10-300 mg/kg, at plasma exposure of 0.38 µM): 72%"
OC[C@H]1C[C@H](O)CN1CCCc1ccc(Nc2nc(-c3cccc(C(F)(F)F)c3)cs2)cc1 [Compound B],did not result in reduced viability,6.2 µM,viability was unchanged,0.055 µM,0.036 µM,double digit nanomolar range,10.1 µM,8.7 µM,13.2 µM,13.5 µM,6.5 µM,5.5 µM,14.3 µM,17.4 µM,9.4 µM,15.5 µM,0.06 µM,> 5 µM,IC50 (hSPHK1): 0.008 µM
"Oc1ccc(Nc2nc(-c3ccc(Cl)cc3)cs2)cc1 [SKII, reference compound]",,,,> 10 µM,,,,,,,,,,,,,13 µM,> 10 µM,IC50 (LOX): 11.3 µM; IC50 (mSPHK1) (mSPHK1): too low to be detected; IC50 [6]: 7.5 µM
CCCCCc1ccc(/C=C/[C@H](O)[C@@H](CO)NC)cc1 [SK1-I],,,,,,,,,,,,,,,,,,,biochemical IC50 (SPHK1): in the micromolar range
